Source: PubChem BioAssay AID330 (DTP/NCI, 2004)
Where “and” joins values, the source holds several entries; their conditions need not be identical. Equal values may be shown once. Inconclusive results and toxic doses are left out. How the source made its calls: active means survival T/C of 150% or more; inactive means T/C below 125% in these data.

Test system: P388 leukemia ip, CD2F1 mice, survival T/C
Assay: NCI In Vivo Anticancer Drug Screen. Data for tumor model P388 Leukemia (intraperitoneal) in CD2F1 (CDF1) mice
Details: endpoint: median survival time, higher = longer survival
Procedure, shortened: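 Mice carrying the transplanted tumor received test compound or vehicle. Survival was recorded in each group, and the value is the treated-group measurement divided by that of the vehicle-treated control group.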

[1] = dose: 60.0 mg/kg/injection, schedule: Q01DX005 (ip), vehicle: saline
[2] = dose: 120.0 mg/kg/injection, schedule: Q01DX005 (ip), vehicle: saline
[3] = dose: 240.0 mg/kg/injection, schedule: Q01DX005 (ip), vehicle: saline
[4] = dose: 50.0 mg/kg/injection, schedule: Q01DX005 (ip), vehicle: saline with Tween-80
[5] = dose: 100.0 mg/kg/injection, schedule: Q01DX005 (ip), vehicle: saline with Tween-80
[6] = dose: 200.0 mg/kg/injection, schedule: Q01DX005 (ip), vehicle: saline with Tween-80
[7] = dose: 50.0 mg/kg/injection, schedule: Q01DX005 (ip), vehicle: Klucel (hydroxypropylcellulose) (HPC)
[8] = dose: 100.0 mg/kg/injection, schedule: Q01DX005 (ip), vehicle: Klucel (hydroxypropylcellulose) (HPC)
[9] = dose: 200.0 mg/kg/injection, schedule: Q01DX005 (ip), vehicle: Klucel (hydroxypropylcellulose) (HPC)
[10] = dose: 200.0 mg/kg/injection, schedule: Q04DX003 (ip), vehicle: saline with Tween-80
[11] = dose: 50.0 mg/kg/injection, schedule: Q01DX009 (ip), vehicle: Klucel (hydroxypropylcellulose) (HPC)
[12] = dose: 100.0 mg/kg/injection, schedule: Q01DX009 (ip), vehicle: Klucel (hydroxypropylcellulose) (HPC)
[13] = dose: 200.0 mg/kg/injection, schedule: Q01DX009 (ip), vehicle: Klucel (hydroxypropylcellulose) (HPC)
[14] = dose: 100.0 mg/kg/injection, schedule: Q04DX003 (ip), vehicle: saline with Tween-80
[15] = dose: 400.0 mg/kg/injection, schedule: Q04DX003 (ip), vehicle: saline with Tween-80
[16] = dose: 12.5 mg/kg/injection, schedule: Q01DX009 (ip), vehicle: Klucel (hydroxypropylcellulose) (HPC)

Measured: T/C

C/C(=N\NC1=NCCN1)c1cnn(C2=NCCN2)c1C
inactive: [1] 116 % of control | [2] 108 % of control | [3] 118 % of control

CC1=C2C(O)C(=O)OC3CC4C(C)(C)C(=O)CCC4(C)C(CC1)C23C (centres undefined)
inactive: dose: 0.1 mg/kg/injection, schedule: Q01DX009 (ip), vehicle: Klucel (hydroxypropylcellulose) (HPC) 97 % of control | dose: 0.21 mg/kg/injection, schedule: Q01DX009 (ip), vehicle: Klucel (hydroxypropylcellulose) (HPC) 98 % of control | dose: 0.43 mg/kg/injection, schedule: Q01DX009 (ip), vehicle: Klucel (hydroxypropylcellulose) (HPC) 100 % of control | dose: 0.87 mg/kg/injection, schedule: Q01DX009 (ip), vehicle: Klucel (hydroxypropylcellulose) (HPC) 102 % of control | dose: 1.75 mg/kg/injection, schedule: Q01DX009 (ip), vehicle: Klucel (hydroxypropylcellulose) (HPC) 98 % of control

O=C1C(S(=O)(=O)O)=CC(=Nc2ccc(O)cc2)c2ccccc21
inactive: [4] 95 % of control | [5] 107 % of control | [6] 102 % of control

CCC1(C(=O)OC)CCc2c(cc(OC)c3ccccc23)C1=O (centres undefined)
inactive: [7] 87 % of control | [8] 87 % of control | [9] 89 % of control

CNC(=S)N/N=C/c1nccc(-c2ccccc2)c1C
inactive: [10] 107 % of control

O=C1C2=C(Nc3cc(Cl)ccc3N2)OC1c1ccc(C2OC3=C(Nc4ccc(Cl)cc4N3)C2=O)cc1 (centres undefined)
inactive: dose: 60.0 mg/kg/injection, schedule: Q01DX005 (ip), vehicle: Klucel (hydroxypropylcellulose) (HPC) 104 % of control | dose: 120.0 mg/kg/injection, schedule: Q01DX005 (ip), vehicle: Klucel (hydroxypropylcellulose) (HPC) 111 % of control | dose: 240.0 mg/kg/injection, schedule: Q01DX005 (ip), vehicle: Klucel (hydroxypropylcellulose) (HPC) 105 % of control

CC(C)c1ncc(CO)n1Cc1c(Cl)cccc1Cl
inactive: [11] 100 % of control | [12] 102 % of control | [13] 100 % of control

CC1=C(O)NC(CC(=O)C(O)CO)=CN1 (centres undefined)
inactive: dose: 25.0 mg/kg/injection, schedule: Q01DX009 (ip), vehicle: water 101 % of control | dose: 50.0 mg/kg/injection, schedule: Q01DX009 (ip), vehicle: water 100 % of control | dose: 100.0 mg/kg/injection, schedule: Q01DX009 (ip), vehicle: water 95 % of control | dose: 200.0 mg/kg/injection, schedule: Q01DX009 (ip), vehicle: water 95 % of control | dose: 400.0 mg/kg/injection, schedule: Q01DX009 (ip), vehicle: water 111 % of control | dose: 800.0 mg/kg/injection, schedule: Q01DX009 (ip), vehicle: water 117 % of control

O=C(Oc1ccccc1)N1CCCC(O)C1 (centres undefined)
inactive: [11] 96 % of control | [12] 105 % of control | [13] 100 % of control

COc1cccc2c1C(=O)c1c(O)c3c(c(O)c1C2=N)C[C@@](O)(C(C)=O)CC3OC1CC(N(Cc2ccccc2)Cc2ccccc2)C(O)C(C)O1 (some centres undefined)
inactive: dose: 12.5 mg/kg/injection, schedule: Q04DX003 (ip), vehicle: saline with Tween-80 102 % of control | dose: 25.0 mg/kg/injection, schedule: Q04DX003 (ip), vehicle: saline with Tween-80 98 % of control | dose: 50.0 mg/kg/injection, schedule: Q04DX003 (ip), vehicle: saline with Tween-80 102 % of control and 123 % of control | [14] 111 % of control and 122 % of control | [10] 124 % of control | [15] 106 % of control

C/C(=N/NC(=O)c1ccccc1)c1ccc(Cl)cc1Cl
inactive: [16] 90 % of control

CC(=O)N(C)N
inactive: [1] 107 % of control | [2] 102 % of control | [3] 93 % of control

COc1ccc(-c2nn(C)c3c2C(=O)C=CC3=O)cc1OC
inactive: dose: 100.0 mg/kg/injection, schedule: Q01DX001 (ip), vehicle: Klucel (hydroxypropylcellulose) (HPC) 92 % of control | dose: 200.0 mg/kg/injection, schedule: Q01DX001 (ip), vehicle: Klucel (hydroxypropylcellulose) (HPC) 106 % of control | dose: 400.0 mg/kg/injection, schedule: Q01DX001 (ip), vehicle: Klucel (hydroxypropylcellulose) (HPC) 95 % of control

Nc1nc(N)c(-c2ccc(Cl)c(Cl)c2)c(CP(Cl)(Cl)(Cl)Br)n1
inactive: dose: 6.25 mg/kg/injection, schedule: Q01DX009 (ip), vehicle: Klucel (hydroxypropylcellulose) (HPC) 96 % of control | [16] 104 % of control | dose: 25.0 mg/kg/injection, schedule: Q01DX009 (ip), vehicle: Klucel (hydroxypropylcellulose) (HPC) 109 % of control | [11] 114 % of control

CC1CC[N+](C)([B-](F)(F)F)CC1 (centres undefined)
inactive: dose: 50.0 mg/kg/injection, schedule: Q01DX005 (ip), vehicle: saline 100 % of control | dose: 100.0 mg/kg/injection, schedule: Q01DX005 (ip), vehicle: saline 106 % of control

CC1=C(C)C(=O)OC(C(C)(O)C2(O)CCC3(O)C4CC(O)C56OC5C=CC(=O)C6(C)C4CCC32C)C1 (centres undefined)
inactive: dose: 0.75 mg/kg/injection, schedule: Q01DX005 (ip), vehicle: Klucel (hydroxypropylcellulose) (HPC) 100 % of control | dose: 1.5 mg/kg/injection, schedule: Q01DX005 (ip), vehicle: Klucel (hydroxypropylcellulose) (HPC) 102 % of control | dose: 3.0 mg/kg/injection, schedule: Q01DX005 (ip), vehicle: Klucel (hydroxypropylcellulose) (HPC) 108 % of control | dose: 6.0 mg/kg/injection, schedule: Q01DX005 (ip), vehicle: Klucel (hydroxypropylcellulose) (HPC) 111 % of control

CCOC(=O)C1=C(C)OC(C)(/N=C(\C#N)C(=O)OC)C1c1ccccc1 (centres undefined)
inactive: dose: 60.0 mg/kg/injection, schedule: Q01DX005 (ip), vehicle: saline with Tween-80 93 % of control | dose: 120.0 mg/kg/injection, schedule: Q01DX005 (ip), vehicle: saline with Tween-80 95 % of control | dose: 240.0 mg/kg/injection, schedule: Q01DX005 (ip), vehicle: saline with Tween-80 98 % of control

CCN(CC)CCNc1ccc(COC(=O)NC)c2oc3ccc(OC(=O)NC)cc3c(=O)c12
inactive: dose: 3.13 mg/kg/injection, schedule: Q01DX005 (ip), vehicle: Klucel (hydroxypropylcellulose) (HPC) 123 % of control

Cc1cnn(C(C(=O)c2ccccc2)c2ccccc2)c1-c1ccccc1 (centres undefined)
inactive: [11] 105 % of control | [12] 105 % of control | [13] 98 % of control

Cc1ccc(S(=O)(=O)OI(C#Cc2ccccc2)c2ccccc2)cc1
inactive: dose: 77.5 mg/kg/injection, schedule: Q04DX002 (ip), vehicle: Klucel (hydroxypropylcellulose) (HPC) 99 % of control | dose: 155.0 mg/kg/injection, schedule: Q04DX002 (ip), vehicle: Klucel (hydroxypropylcellulose) (HPC) 89 % of control | dose: 310.0 mg/kg/injection, schedule: Q04DX002 (ip), vehicle: Klucel (hydroxypropylcellulose) (HPC) 99 % of control

C[C@H]1C(=O)O[C@@H]2CCN3CC=C(COC(=O)[C@](C)(O)[C@@]1(C)O)[C@H]23
inactive: dose: 3.13 mg/kg/injection, schedule: Q01DX010 (ip), vehicle: saline 95 % of control | dose: 6.25 mg/kg/injection, schedule: Q01DX010 (ip), vehicle: saline 100 % of control | dose: 12.5 mg/kg/injection, schedule: Q01DX010 (ip), vehicle: saline 104 % of control | dose: 25.0 mg/kg/injection, schedule: Q01DX010 (ip), vehicle: saline 100 % of control

C=C(CCCC(C)(C)OCOCCOC)[Si](C)(C)C
inactive: [4] 101 % of control | [5] 100 % of control | [6] 102 % of control

O=Cc1c2cnc(c1O)CSCCCCSC2
inactive: dose: 100.0 mg/kg/injection, schedule: Q04DX002 (ip), vehicle: saline with Tween-80 99 % of control | dose: 200.0 mg/kg/injection, schedule: Q04DX002 (ip), vehicle: saline with Tween-80 96 % of control | dose: 400.0 mg/kg/injection, schedule: Q04DX002 (ip), vehicle: saline with Tween-80 101 % of control

CCCCCCCC/C=C\CCCCCCCCN1CN=C(N)N(C#N)C1
inactive: [14] 101 % of control | [10] 100 % of control | [15] 103 % of control

COc1ccc(N(N=O)c2c(C)cc(C)cc2C)c(C(=O)O)c1
inactive: [7] 96 % of control | [8] 96 % of control | [9] 98 % of control

O=C1C(=C2C=CN(CCCN3CCCC3)C=C2)C(=O)c2ccccc21
inactive: [11] 90 % of control | [12] 96 % of control | [13] 95 % of control

Cn1c(/C=C/CO)c(CO)c2c1C(=O)C=C(N1CC1)C2=O
inactive: dose: 1.5 mg/kg/injection, schedule: Q01DX005 (ip), vehicle: saline 106 % of control | dose: 3.0 mg/kg/injection, schedule: Q01DX005 (ip), vehicle: saline 94 % of control
